What was measured:
[1] = tested on: HTT; assay: RT-qPCR splicing assay, HTT AJ/CJ mRNA; type: cell-based, human; conditions: Homo sapiens, 24 h, A673 or K562 cells; for IC50: decrease in canonical junction mRNA; for AC50: increase in alternative junction mRNA
How it was run: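 Following 24 h compound exposure at 37 °C (11 points, 3-fold, highest 10 uM; DMSO ≤0.25%), A673 or K562 lysates underwent RT-qPCR for exon-inclusion (AJ) and canonical (CJ) junctions of HTT and MYB. Relative quantification used housekeeping-gene ΔCt and DMSO-normalized ΔΔCt, converted to percentage response.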

[2] = tested on: MYB; assay: Gene panel canonical junction qPCR assay, MYB CJ mRNA (Table 7); type: cell-based; conditions: Homo sapiens, read-out: MYB CJ mRNA decrease IC50
How it was run: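 Canonical-junction transcript decrease reported as IC50 from a 4-parameter logistic fit of percentage response, derived from 2^(−ΔΔCt) versus housekeeper (GAPDH/GUSB/PPIA) and DMSO control using preset ΔCt windows. Readout by cDNA synthesis and qPCR with exon-junction-overlapping probesets in compound-treated K562 or A673 cells.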

Compound	IC50 [1] [nM]	AC50 [1] [nM]	IC50 [2] [nM]
COc1cc(-c2ccc3c(c2)COc2nc(O[C@@H]4C[C@H]5COC[C@@H](C4)N5)ccc2-3)cnn1 [Compound 290, (exo)-7-{[8-(6-methoxypyridazin-4-yl)-6H-isochromeno[3,4-b]pyridin-3-yl]oxy}-3-oxa-9-azabicyclo[3.3.1]nonane]	< 100	100 to 1000	100 to 1000
CN(c1ccc2c(n1)OCc1cc(-n3cccn3)ccc1-2)[C@@H]1C[C@H]2CC[C@@H](C1)N2 [Compound 149]	100 to 1000	< 100	100 to 1000
COc1cc(-c2ccc3c(c2)COc2nc(N4CCC(N5CCCC5)C4)ccc2-3)cnn1 (stereo not drawn) [Compound 305]	100 to 1000	100 to 1000	1000 to 10000
